Measured values: patent publication US12024518B1, “Pyrazolo[4,3-C][1,6]naphthyridines as CK2 inhibitors” (KING FAISAL UNIVERSITY, priority 2023, dated 2024)

Experiments:
[1] = tested on: PC3 (prostate); test: In vitro cytotoxic activity (MTT) assay, PC3; type: cell-based; settings: Homo sapiens; PC3 (prostate) cells, exposed for 96 hours, 50% inhibition of cell proliferation; read-out: Cytotoxicity activity IC50
Method: (§1) Compounds 1-16 were screened for their in vitro cytotoxic activity utilizing a 3-(4,5-dimethyl-thiazol-2-yl)-2,5-diphenyltetrazolium bromide (MTT) assay against selected cancer human cell lines consisting of PC3 (prostate), HCT116 (colon), A375 (melanoma), H1299 (lung), MIAPaCa-2 (pancreas), HL60 (leukemia), MCF7 (breast), MDA-MB-231 (breast) (T. Mosmann, J. Immunol. Meth., 1983, 65, 55-63). The cells were cultured at 37° C. in RMPI1640 medium supplemented with 10% fetal bovine serum, 50 IU/mL penicillin, and 50 μg/mL streptomycin in a 5% CO2 incubator. All cells were sub-cultured 3 times/week by trypsinisation. Viable cells were seeded and allowed to adhere for 12 hours before a test drug was added in 96-well plates at an initial density of 1.0×10^5 cells/mL. Tumor cell lines were separately exposed to various concentrations of the tested compounds followed by incubation at a temperature of 37° C. during 96 hours inside a medium of fresh RMPI 1640. Cells were subsequently incubated at 37° C. using MTT at 0.5 mg/mL during 4 hours. After removal of supernatant, formazan crystals were dissolved in isopropanol and the optical density was measured at 570 nm. CX-4945 was used as a positive control.

[2] = tested on: HCT116 (colon); test: In vitro cytotoxic activity (MTT) assay, HCT116; type: cell-based; settings: Homo sapiens, HCT-116; HCT116 (colon) cells, exposed for 96 hours, 50% inhibition of cell proliferation; read-out: Cytotoxicity activity IC50
Method: as §1

[3] = tested on: A375 (melanoma); test: In vitro cytotoxic activity (MTT) assay, A375; type: cell-based; settings: Homo sapiens, A-375; A375 (melanoma) cells, exposed for 96 hours, 50% inhibition of cell proliferation; read-out: Cytotoxicity activity IC50
Method: as §1

[4] = tested on: H1299 (lung); test: In vitro cytotoxic activity (MTT) assay, H1299; type: cell-based; settings: Homo sapiens, NCI-H1299; H1299 (lung) cells, exposed for 96 hours, 50% inhibition of cell proliferation; read-out: Cytotoxicity activity IC50
Method: as §1

[5] = tested on: MIAPaCa-2 (pancreas); test: In vitro cytotoxic activity (MTT) assay, MIAPaCa-2; type: cell-based; settings: Homo sapiens, MIA PaCa-2; MIAPaCa-2 (pancreas) cells, exposed for 96 hours, 50% inhibition of cell proliferation; read-out: Cytotoxicity activity IC50
Method: as §1

[6] = tested on: HL60 (leukemia); test: In vitro cytotoxic activity (MTT) assay, HL60; type: cell-based; settings: Homo sapiens, HL-60; HL60 (leukemia) cells, exposed for 96 hours, 50% inhibition of cell proliferation; read-out: Cytotoxicity activity IC50
Method: as §1

[7] = tested on: MCF7 (breast); test: In vitro cytotoxic activity (MTT) assay, MCF7; type: cell-based; settings: Homo sapiens; MCF7 (breast) cells, exposed for 96 hours, 50% inhibition of cell proliferation; read-out: Cytotoxicity activity IC50
Method: as §1

[8] = tested on: MDA-MB-231 (breast); test: In vitro cytotoxic activity (MTT) assay, MDA-MB-231; type: cell-based; settings: Homo sapiens; MDA-MB-231 (breast) cells, exposed for 96 hours, 50% inhibition of cell proliferation; read-out: Cytotoxicity activity IC50
Method: as §1

[9] = target: T1, recombinant human CK2 (RRββ-holoenzyme) (Homo sapiens, UniProt P68400); test: CK2 Kinase Assay (33P-ATP, substrate peptide RRRDDDSDDD); type: biochemical; settings: final ATP concentration 15 μM, 10 min at 30° C., eight concentrations; read-out: protein kinase CK2 inhibition IC50
T1 construct: purchased Millipore
T1 sequence (P68400 whole entry): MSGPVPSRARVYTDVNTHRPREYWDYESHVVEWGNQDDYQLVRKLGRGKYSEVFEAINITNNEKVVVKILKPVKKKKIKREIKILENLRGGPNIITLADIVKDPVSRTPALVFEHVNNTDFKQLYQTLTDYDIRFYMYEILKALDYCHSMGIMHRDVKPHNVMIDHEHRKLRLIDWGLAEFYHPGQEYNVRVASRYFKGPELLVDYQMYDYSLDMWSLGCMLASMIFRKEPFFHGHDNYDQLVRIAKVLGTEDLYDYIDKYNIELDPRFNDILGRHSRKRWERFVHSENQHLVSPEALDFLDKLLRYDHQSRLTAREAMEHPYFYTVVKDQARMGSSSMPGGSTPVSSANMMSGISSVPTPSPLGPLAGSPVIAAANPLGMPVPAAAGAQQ
T1 sequence (P67870 whole entry partner): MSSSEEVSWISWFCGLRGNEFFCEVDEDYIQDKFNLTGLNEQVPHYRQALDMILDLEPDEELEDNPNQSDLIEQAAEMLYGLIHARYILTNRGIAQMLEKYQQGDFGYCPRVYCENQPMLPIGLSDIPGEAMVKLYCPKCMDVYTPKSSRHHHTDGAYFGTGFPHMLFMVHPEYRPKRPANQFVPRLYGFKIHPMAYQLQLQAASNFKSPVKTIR
Method: CK2 Kinase Assay was conducted using the protocol as described in Pierre F. et al; J. Med. Chem. 2011, 54, 635-654. The tested compounds in aqueous solution were added at a volume of 10 μL to a reaction mixture comprising 10 μL of assay dilution buffer (ADB; 20 mM MOPS, pH 7.2, 25 mM β-glycerol phosphate, 5 mM EGTA, 1 mM sodium orthovanadate, and 1 mM dithiothreitol), 10 μL of substrate peptide (RRRDDDSDDD, dissolved in ADB at a concentration of 1 mM), 10 μL of recombinant human CK2 (RRββ-holoenzyme, 25 ng dissolved in ADB; Millipore). Reactions were initiated by the addition of 10 μL of ATP solution (90% 75 mMMgCl2, 75 μM ATP (final ATP concentration: 15 μM) dissolved in ADB; 10% [γ-33P] ATP (stock 1 mCi/100 μL; 3000 Ci/mmol (Perkin-Elmer) and maintained for 10 min at 30° C. The reactions were quenched with 100 μL of 0.75% phosphoric acid and then transferred to and filtered through a phosphor cellulose filter plate (Millipore). After washing each well five times with 0.75% phosphoric acid, the plate was dried under vacuum for 5 min and, following the addition of 15 μL of scintillation fluid to each well, the residual radioactivity was measured using a Wallac luminescence counter. The IC50 values were derived from eight concentrations of test inhibitors.

O=C(O)c1n[nH]c2c1c(Nc1cccc(Cl)c1)nc1ccncc12 [Compound 1, 4-((3-chlorophenyl)amino)-1H-pyrazolo[4,3-c][1,6]naphthyridine-3-carboxylic acid]
IC50 [1]: 2.5 µM | IC50 [2]: 1.7 µM | IC50 [3]: 3.8 µM | IC50 [4]: 1.9 µM | IC50 [5]: 1.4 µM | IC50 [6]: 2.9 µM | IC50 [7]: 6.3 µM | IC50 [8]: 5.8 µM | IC50 [9]: 0.048 µM
